Assay results reported in ChEMBL document CHEMBL3808392, “Design, synthesis and biological evaluation of 5-fluorouracil-derived benzimidazoles as novel type of potential antimicrobial agents” (2016).
In brackets after ≈: the same amount, converted by molar mass.

Experiments:
Staphylococcus aureus [1] = experiment: Antimicrobial activity against methicillin-resistant Staphylococcus aureus N315 after 24 hrs by microbroth dilution method; format: functional; settings: N315, 24 h
Staphylococcus aureus [2] = experiment: Antimicrobial activity against Staphylococcus aureus ATCC 25923 after 24 hrs by microbroth dilution method; format: functional; settings: ATCC 25923, 24 h
Bacillus spizizenii = experiment: Antimicrobial activity against Bacillus subtilis ATCC 6633 after 24 hrs by microbroth dilution method; format: functional; settings: ATCC 6633, 24 h
Micrococcus luteus = experiment: Antimicrobial activity against Micrococcus luteus ATCC 4698 after 24 hrs by microbroth dilution method; format: functional; settings: ATCC 4698, 24 h
Escherichia coli [3] = experiment: Antimicrobial activity against Escherichia coli DH52 after 24 hrs by microbroth dilution method; format: functional; settings: DH52, 24 h
Escherichia coli [4] = experiment: Antimicrobial activity against Escherichia coli JM109 after 24 hrs by microbroth dilution method; format: functional; settings: JM109, 24 h
[5] = Antimicrobial activity against Bacillus proteus ATCC 13315 after 24 hrs by microbroth dilution method; format: functional; settings: ATCC 13315, 24 h
Salmonella typhi = experiment: Antimicrobial activity against Bacillus typhi after 24 hrs by microbroth dilution method; format: functional, Salmonella enterica subsp. enterica serovar Typhi; settings: Salmonella enterica
Candida albicans = experiment: Antimicrobial activity against Candida albicans ATCC 10231 after 24 hrs by microbroth dilution method; format: functional; settings: ATCC 10231, 24 h
Candida = experiment: Antimicrobial activity against Candida mycoderma ATCC 9888 after 24 hrs by microbroth dilution method; format: functional; settings: ATCC 9888, 24 h
Saccharomyces cerevisiae = experiment: Antimicrobial activity against Saccharomyces cerevisiae after 24 hrs by microbroth dilution method; format: functional
Aspergillus flavus = experiment: Antimicrobial activity against Aspergillus flavus ATCC 204304 after 24 hrs by microbroth dilution method; format: functional; settings: ATCC 204304, 24 h
Bacillus = experiment: Potency index, ratio of norfloxacin MIC to compound MIC for antimicrobial activity against Bacillus proteus ATCC 13315; format: functional

O=c1[nH]c(=O)n(Cc2nc3ccccc3n2Cc2cccc(F)c2)cc1F
MIC (Staphylococcus aureus [1]): 64 µg/mL (≈ 174 µM)
MIC (Staphylococcus aureus [2]): 4 µg/mL (≈ 10.9 µM)
MIC (Bacillus spizizenii): 8 µg/mL (≈ 21.7 µM)
MIC (Micrococcus luteus): 16 µg/mL (≈ 43.4 µM)
MIC (Escherichia coli [3]): 2 µg/mL (≈ 5.43 µM)
MIC (Escherichia coli [4]): 64 µg/mL (≈ 174 µM)
MIC [5]: 2 µg/mL (≈ 5.43 µM)
MIC (Salmonella typhi): 128 µg/mL (≈ 348 µM)
MIC (Candida albicans): 16 µg/mL (≈ 43.4 µM)
MIC (Candida): 16 µg/mL (≈ 43.4 µM)
MIC (Saccharomyces cerevisiae): 4 µg/mL (≈ 10.9 µM)
MIC (Aspergillus flavus): 32 µg/mL (≈ 86.9 µM)
Ratio (Bacillus): 4
